Tests used:
Test in all cases: KiNativ chemical proteomics profiling in HeLa and PC3 cell lysates
Assay type in all cases: binding
[1] = target: T1, selected panels of kinases in HeLa and PC3 cell lysates (Homo sapiens, UniProt O95835); conditions: 10 uM; proteome HEL; peptide ALYATkTLR; labeling site Lys1
T1 construct: endogenous in cells; host or cells: HeLa and PC3 cell lysates

[2] = target: T2, selected panels of kinases in HeLa and PC3 cell lysates (Homo sapiens, UniProt P42338); conditions: 10 uM; PIK3CB; peptide […]k[…]; proteome PC3; labeling site ATP
T2 construct: endogenous in cells; host or cells: HeLa and PC3 cell lysates
T2 sequence (P42338 whole entry): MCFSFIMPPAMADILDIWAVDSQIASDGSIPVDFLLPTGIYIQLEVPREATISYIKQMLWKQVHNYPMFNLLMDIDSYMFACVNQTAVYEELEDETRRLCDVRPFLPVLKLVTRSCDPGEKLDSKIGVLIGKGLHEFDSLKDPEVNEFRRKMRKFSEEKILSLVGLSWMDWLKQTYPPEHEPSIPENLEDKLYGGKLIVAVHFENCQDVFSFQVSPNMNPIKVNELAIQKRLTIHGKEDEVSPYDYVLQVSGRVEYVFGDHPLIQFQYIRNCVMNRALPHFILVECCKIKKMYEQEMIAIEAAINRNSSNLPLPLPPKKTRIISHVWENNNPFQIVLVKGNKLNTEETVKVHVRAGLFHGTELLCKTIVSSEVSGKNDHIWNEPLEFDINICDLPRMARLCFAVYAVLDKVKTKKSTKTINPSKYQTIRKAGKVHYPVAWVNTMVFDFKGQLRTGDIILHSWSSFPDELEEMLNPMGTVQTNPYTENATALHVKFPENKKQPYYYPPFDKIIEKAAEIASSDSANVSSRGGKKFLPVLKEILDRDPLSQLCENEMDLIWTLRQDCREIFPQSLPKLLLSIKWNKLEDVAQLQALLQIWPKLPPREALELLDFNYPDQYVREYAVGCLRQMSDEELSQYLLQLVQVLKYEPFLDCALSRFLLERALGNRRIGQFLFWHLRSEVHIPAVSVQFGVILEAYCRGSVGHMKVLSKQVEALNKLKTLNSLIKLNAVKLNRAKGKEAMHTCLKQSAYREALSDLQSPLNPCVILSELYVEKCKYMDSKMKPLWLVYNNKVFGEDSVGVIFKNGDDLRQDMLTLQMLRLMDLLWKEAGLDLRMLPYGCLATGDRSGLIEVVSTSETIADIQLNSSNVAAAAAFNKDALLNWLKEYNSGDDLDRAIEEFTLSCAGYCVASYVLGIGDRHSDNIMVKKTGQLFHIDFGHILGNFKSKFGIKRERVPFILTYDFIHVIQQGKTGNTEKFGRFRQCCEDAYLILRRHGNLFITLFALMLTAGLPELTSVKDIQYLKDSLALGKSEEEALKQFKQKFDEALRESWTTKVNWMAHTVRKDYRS

[3] = target: T3, selected panels of kinases in HeLa and PC3 cell lysates (Homo sapiens, UniProt Q8IVH8); conditions: 10 uM; proteome PC3; peptide […]kVIK; labeling site Lys1
T3 construct: endogenous in cells; host or cells: HeLa and PC3 cell lysates

[4] = target: T4, selected panels of kinases in HeLa and PC3 cell lysates (Homo sapiens, UniProt Q9Y6R4); conditions: 10 uM, peptide DIk[…], labeling site Lys2
T4 construct: endogenous in cells; host or cells: HeLa and PC3 cell lysates
T4 sequence (Q9Y6R4 whole entry): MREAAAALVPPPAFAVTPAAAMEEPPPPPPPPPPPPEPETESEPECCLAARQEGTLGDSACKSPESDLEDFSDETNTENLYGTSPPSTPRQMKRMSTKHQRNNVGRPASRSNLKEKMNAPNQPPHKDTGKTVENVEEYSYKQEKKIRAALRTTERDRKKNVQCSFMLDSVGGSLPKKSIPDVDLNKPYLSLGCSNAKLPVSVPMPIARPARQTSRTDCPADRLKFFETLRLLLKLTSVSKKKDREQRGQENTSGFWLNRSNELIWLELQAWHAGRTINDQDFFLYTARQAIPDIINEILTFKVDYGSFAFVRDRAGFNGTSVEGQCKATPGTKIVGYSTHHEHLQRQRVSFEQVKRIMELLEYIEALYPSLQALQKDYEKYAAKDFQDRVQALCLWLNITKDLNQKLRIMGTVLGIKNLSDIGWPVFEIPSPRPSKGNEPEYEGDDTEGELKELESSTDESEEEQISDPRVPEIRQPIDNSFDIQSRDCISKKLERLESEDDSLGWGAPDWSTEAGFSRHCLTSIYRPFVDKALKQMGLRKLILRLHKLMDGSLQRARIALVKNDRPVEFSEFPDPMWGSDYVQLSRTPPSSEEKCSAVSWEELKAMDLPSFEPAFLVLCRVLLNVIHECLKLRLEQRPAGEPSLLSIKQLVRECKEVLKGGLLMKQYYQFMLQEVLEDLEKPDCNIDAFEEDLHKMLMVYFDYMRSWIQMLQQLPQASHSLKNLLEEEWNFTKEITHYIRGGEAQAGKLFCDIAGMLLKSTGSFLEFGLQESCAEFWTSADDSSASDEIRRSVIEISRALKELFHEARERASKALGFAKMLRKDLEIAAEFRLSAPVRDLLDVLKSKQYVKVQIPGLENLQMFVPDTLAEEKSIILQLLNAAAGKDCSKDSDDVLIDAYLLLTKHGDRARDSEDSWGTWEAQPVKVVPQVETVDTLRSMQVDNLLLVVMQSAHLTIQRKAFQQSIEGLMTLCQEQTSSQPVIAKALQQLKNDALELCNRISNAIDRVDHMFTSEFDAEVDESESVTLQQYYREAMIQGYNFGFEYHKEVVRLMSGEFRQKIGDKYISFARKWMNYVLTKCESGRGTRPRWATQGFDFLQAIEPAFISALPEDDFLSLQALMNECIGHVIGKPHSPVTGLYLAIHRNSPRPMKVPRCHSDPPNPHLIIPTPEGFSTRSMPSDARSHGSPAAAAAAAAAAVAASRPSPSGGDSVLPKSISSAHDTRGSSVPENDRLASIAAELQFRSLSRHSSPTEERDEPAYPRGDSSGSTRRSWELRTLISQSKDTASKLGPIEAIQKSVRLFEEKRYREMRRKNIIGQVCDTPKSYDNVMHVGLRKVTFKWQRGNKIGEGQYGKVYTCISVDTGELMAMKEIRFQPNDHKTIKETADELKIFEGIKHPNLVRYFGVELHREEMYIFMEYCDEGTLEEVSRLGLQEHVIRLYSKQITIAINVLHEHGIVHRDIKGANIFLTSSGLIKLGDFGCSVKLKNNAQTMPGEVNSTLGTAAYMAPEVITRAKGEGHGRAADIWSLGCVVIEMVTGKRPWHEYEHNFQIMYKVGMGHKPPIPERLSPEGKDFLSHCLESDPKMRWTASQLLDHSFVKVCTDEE

[5] = target: T5, selected panels of kinases in HeLa and PC3 cell lysates (Homo sapiens, UniProt Q13464); conditions: 10 uM; ROCK1; peptide kLQLELNQER; proteome PC3; labeling site Other
T5 construct: endogenous in cells; host or cells: HeLa and PC3 cell lysates

[6] = target: T6, selected panels of kinases in HeLa and PC3 cell lysates (Homo sapiens, UniProt Q96Q15); conditions: 10 uM; SMG1; peptide […]kTKPK; proteome HEL; labeling site ATP
T6 construct: endogenous in cells; host or cells: HeLa and PC3 cell lysates

[7] = target: T7, selected panels of kinases in HeLa and PC3 cell lysates (Homo sapiens, UniProt Q8TBX8); conditions: 10 uM, PIP4K2C, labeling site ATP
T7 construct: endogenous in cells; host or cells: HeLa and PC3 cell lysates
T7 sequence (Q8TBX8 1-421): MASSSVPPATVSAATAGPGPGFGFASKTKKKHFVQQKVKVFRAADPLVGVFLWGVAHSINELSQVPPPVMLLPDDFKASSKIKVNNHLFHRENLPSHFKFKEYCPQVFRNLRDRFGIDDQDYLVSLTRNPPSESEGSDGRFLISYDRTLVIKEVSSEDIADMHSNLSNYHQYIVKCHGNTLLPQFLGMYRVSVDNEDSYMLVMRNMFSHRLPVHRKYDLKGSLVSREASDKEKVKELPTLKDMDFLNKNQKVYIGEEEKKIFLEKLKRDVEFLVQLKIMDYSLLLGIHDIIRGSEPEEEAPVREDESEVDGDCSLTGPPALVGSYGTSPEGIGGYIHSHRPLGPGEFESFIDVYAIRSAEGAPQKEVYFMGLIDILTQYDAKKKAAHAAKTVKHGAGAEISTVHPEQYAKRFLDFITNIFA

[8] = target: T8, selected panels of kinases in HeLa and PC3 cell lysates (Homo sapiens, UniProt O75582); conditions: 10 uM; proteome HEL; peptide DIk[…]; labeling site Lys2
T8 construct: endogenous in cells; host or cells: HeLa and PC3 cell lysates

[9] = target: T9, selected panels of kinases in HeLa and PC3 cell lysates (Homo sapiens, UniProt Q8IU85); conditions: 10 uM; proteome HEL; peptide LFAVkCIPK; labeling site Lys1
T9 construct: endogenous in cells; host or cells: HeLa and PC3 cell lysates

[10] = target: T10, selected panels of kinases in HeLa and PC3 cell lysates (Homo sapiens, UniProt Q14012); conditions: 10 uM; proteome HEL; peptide LVAIkCIAK; labeling site Lys1
T10 construct: endogenous in cells; host or cells: HeLa and PC3 cell lysates

[11] = target: T11, selected panels of kinases in HeLa and PC3 cell lysates (Homo sapiens, UniProt Q96S38); conditions: 10 uM; RSKL1 domain1; peptide VLGVIDkVLLVMDTR; proteome HEL; labeling site Protein Kinase Domain
T11 construct: endogenous in cells; host or cells: HeLa and PC3 cell lysates

[12] = target: T12, selected panels of kinases in HeLa and PC3 cell lysates (Homo sapiens, UniProt Q9NRH2); conditions: 10 uM; SNRK; peptide DLkPENVVFFEK; proteome PC3; labeling site Lys2
T12 construct: endogenous in cells; host or cells: HeLa and PC3 cell lysates

[13] = target: T13, selected panels of kinases in HeLa and PC3 cell lysates (Homo sapiens, UniProt O00418); conditions: 10 uM, peptide YIkYNSNSGFVR, labeling site Protein Kinase Domain
T13 construct: endogenous in cells; host or cells: HeLa and PC3 cell lysates
T13 sequence (O00418 whole entry, the tested form may be a part): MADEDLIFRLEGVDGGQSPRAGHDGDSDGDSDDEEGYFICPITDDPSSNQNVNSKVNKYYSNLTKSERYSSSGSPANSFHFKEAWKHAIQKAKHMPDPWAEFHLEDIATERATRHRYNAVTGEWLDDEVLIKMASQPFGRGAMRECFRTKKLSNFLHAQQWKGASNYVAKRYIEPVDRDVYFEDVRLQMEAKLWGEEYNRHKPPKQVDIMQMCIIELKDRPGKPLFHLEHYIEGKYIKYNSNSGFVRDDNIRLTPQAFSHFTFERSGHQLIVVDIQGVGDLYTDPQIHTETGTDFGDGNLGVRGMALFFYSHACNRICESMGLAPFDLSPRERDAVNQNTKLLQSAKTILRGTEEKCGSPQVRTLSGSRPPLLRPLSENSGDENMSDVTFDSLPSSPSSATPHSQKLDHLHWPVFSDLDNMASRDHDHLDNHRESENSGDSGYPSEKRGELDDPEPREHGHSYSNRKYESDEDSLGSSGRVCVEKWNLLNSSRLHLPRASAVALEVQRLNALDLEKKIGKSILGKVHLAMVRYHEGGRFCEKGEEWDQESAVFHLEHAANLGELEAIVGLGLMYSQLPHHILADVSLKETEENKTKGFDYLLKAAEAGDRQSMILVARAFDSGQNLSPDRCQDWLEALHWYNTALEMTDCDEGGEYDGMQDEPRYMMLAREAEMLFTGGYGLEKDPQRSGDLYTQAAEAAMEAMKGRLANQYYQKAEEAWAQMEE

[14] = target: T14, selected panels of kinases in HeLa and PC3 cell lysates (Homo sapiens, UniProt Q13523); conditions: 10 uM; PRP4; peptide […]k[…]; proteome PC3; labeling site Lys2
T14 construct: endogenous in cells; host or cells: HeLa and PC3 cell lysates

[15] = target: T15, selected panels of kinases in HeLa and PC3 cell lysates (Homo sapiens, UniProt O96017); conditions: 10 uM
T15 construct: endogenous in cells; host or cells: HeLa and PC3 cell lysates
T15 sequence (O96017 whole entry): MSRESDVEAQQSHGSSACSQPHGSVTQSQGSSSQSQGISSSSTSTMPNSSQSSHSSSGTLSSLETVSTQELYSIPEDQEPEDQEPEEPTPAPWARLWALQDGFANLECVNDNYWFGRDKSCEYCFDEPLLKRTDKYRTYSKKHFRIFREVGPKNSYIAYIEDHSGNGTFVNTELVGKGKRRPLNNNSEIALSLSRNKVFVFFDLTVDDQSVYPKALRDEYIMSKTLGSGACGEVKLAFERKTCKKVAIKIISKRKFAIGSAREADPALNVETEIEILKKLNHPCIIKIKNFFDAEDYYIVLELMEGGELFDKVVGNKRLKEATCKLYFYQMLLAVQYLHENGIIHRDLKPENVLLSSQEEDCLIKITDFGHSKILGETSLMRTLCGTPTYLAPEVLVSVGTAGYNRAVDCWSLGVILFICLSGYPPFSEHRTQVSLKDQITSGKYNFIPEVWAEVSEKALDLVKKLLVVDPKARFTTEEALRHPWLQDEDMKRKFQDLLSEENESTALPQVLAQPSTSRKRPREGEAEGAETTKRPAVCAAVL

[16] = target: T16, selected panels of kinases in HeLa and PC3 cell lysates (Homo sapiens, UniProt P12931); conditions: 10 uM; SRC; peptide VAIk[…]; proteome PC3; labeling site Lys1
T16 construct: endogenous in cells; host or cells: HeLa and PC3 cell lysates

[17] = peptide ELPTLkDMDFLNK, proteome PC3
[18] = proteome HEL, peptide DLk[…], labeling site Lys2
[19] = proteome PC3, peptide DLk[…], labeling site Lys2
[20] = proteome PC3, peptide VAIkIISK, labeling site Lys1

T1 sequence (O95835 whole entry): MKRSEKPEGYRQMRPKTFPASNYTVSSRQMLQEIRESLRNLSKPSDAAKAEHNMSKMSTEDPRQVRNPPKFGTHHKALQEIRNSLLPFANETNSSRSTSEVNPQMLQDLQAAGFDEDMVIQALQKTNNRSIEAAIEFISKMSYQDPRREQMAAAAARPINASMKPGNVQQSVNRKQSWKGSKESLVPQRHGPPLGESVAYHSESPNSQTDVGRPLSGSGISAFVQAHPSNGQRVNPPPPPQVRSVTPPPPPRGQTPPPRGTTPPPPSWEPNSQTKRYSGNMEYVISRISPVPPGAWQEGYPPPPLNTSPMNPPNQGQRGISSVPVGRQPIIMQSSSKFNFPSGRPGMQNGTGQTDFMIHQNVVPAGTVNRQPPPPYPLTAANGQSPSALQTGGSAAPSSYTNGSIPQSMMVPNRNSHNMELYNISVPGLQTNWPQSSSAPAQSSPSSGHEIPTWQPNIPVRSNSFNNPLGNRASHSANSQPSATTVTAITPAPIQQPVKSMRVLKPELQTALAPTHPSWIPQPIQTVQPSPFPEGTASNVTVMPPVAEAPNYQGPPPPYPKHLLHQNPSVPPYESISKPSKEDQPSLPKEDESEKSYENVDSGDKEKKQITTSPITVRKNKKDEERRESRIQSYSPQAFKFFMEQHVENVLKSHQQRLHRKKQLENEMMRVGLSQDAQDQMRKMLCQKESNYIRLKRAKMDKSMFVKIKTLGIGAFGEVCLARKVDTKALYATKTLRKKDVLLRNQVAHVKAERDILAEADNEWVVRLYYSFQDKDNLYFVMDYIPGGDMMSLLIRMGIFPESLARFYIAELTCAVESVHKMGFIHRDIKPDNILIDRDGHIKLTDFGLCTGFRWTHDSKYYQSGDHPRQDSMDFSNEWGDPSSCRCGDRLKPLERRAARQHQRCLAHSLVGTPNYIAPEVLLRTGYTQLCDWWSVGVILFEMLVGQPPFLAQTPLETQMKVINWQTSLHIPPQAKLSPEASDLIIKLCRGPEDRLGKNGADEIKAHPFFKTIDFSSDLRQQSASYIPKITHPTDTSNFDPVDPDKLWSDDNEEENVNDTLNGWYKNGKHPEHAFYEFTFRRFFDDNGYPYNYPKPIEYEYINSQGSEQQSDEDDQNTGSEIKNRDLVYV

| Compound | % Inhibiton, LATS1 [1] [%] | % Inhibition PIK3CB [2] [%] | % Inhibiton, KHS2 [3] [%] | % Inhibiton, MAP3K4 ([4]; proteome HEL) [%] | % Inhibiton, MAP3K4 ([4]; proteome PC3) [%] | % Inhibition ROCK1 [5] [%] | % Inhibition SMG1 [6] [%] | % Inhibition PIP4K2C [7, 17] [%] | % Inhibition PIP4K2C ([7]; peptide TLVIk[…], proteome HEL) [%] | % Inhibition PIP4K2C ([7]; peptide TLVIk[…], proteome PC3) [%] | % Inhibiton, MSK1 domain1 [8] [%] | % Inhibiton, CaMK1d [9] [%] | % Inhibiton, CaMK1a [10] [%] | % Inhibition RSKL1 domain1 [11] [%] | % Inhibition SNRK [12] [%] | % Inhibiton, eEF2K ([13]; proteome HEL) [%] | % Inhibiton, eEF2K ([13]; proteome PC3) [%] | % Inhibition PRP4 [14] [%] | % Inhibiton, CHK2 [15, 18] [%] | % Inhibiton, CHK2 [15, 19] [%] | further results |
| --- | --- | --- | --- | --- | --- | --- | --- | --- | --- | --- | --- | --- | --- | --- | --- | --- | --- | --- | --- | --- | --- |
| COc1cc(C(=O)N2CCC(N3CCN(C)CC3)CC2)ccc1Nc1ncc2c(n1)N(C1CCCC1)c1ccccc1C(=O)N2C [Compound 25, 11-cyclopentyl-2-((2-methoxy-4-(4-(4-methylpiperazin-1-yl)piperidine-1-carbonyl)phenyl)amino)-5-methyl-5H-benzo[e]pyrimido[5,4-b][1,4]diazepin-6(11H)-one] | 7.2 | 0.8 | -4.9 | 7.2 | 2.6 | -4.2 | -21.0 | 21.5 | 9.5 | -0.123 | 26.7 | 5.8 | 19.1 | ~75.1 | -15.7 | 8.7 | -9.1 | -11.9 | 15.6 | 0.0283 | % Inhibiton, CHK2 [15, 20]: 11.3%; % Inhibition SRC [16]: -3.4% |
| CCOc1cc(C(=O)N2CCC(N3CCN(C)CC3)CC2)ccc1Nc1ncc2c(n1)N(C1CCCC1)c1ccccc1C(=O)N2C [Compound 26] | 6.8 | -124.1 | -3.3 | -12 | -1.2 | -8.1 | -4.8 | -6.2 | 4.7 | -5.8 | ~70.5 | 19.9 | 36 | -6.2 | -6.9 | 1.2 | 1.9 | 5.5 | -18.8 | 14.1 | % Inhibiton, CHK2 [15, 20]: 4.6%; % Inhibition SRC [16]: 13.8% |

From publication PMC3914206
